From PMC4749168, “Potentiation of ΔF508- and G551D-CFTR-Mediated Cl^- Current by Novel Hydroxypyrazolines” (PLoS ONE, 2016)
Several values for one entry are separate records, joined by “and”; a condition that tells them apart may be missing. Identical values can stand only once. Entries after “also recorded” stand apart in the source; their conditions may differ.

Legend:
ΔF508-CFTR = ΔF508-CFTR (Homo sapiens, UniProt P13569, DEL508-508); test: YFP quenching assay of VX-809-mediated rescue in A549 cells expressing ΔF508-CFTR; assay type: cell-based; design: expressed in transfected cells; host or cells: Fisher rat thyroid (FRT) cells, co-expressing halide sensor YFP-H148Q/I152L; provided by Dr. Alan Verkman; conditions: 48 h, combined with 5 μM VX-809, 10 μM CP7q or 5 μM VX-770, vs VX-809 alone
Sequence of ΔF508-CFTR (P13569 with tags, fused parts or gaps DEL508-508): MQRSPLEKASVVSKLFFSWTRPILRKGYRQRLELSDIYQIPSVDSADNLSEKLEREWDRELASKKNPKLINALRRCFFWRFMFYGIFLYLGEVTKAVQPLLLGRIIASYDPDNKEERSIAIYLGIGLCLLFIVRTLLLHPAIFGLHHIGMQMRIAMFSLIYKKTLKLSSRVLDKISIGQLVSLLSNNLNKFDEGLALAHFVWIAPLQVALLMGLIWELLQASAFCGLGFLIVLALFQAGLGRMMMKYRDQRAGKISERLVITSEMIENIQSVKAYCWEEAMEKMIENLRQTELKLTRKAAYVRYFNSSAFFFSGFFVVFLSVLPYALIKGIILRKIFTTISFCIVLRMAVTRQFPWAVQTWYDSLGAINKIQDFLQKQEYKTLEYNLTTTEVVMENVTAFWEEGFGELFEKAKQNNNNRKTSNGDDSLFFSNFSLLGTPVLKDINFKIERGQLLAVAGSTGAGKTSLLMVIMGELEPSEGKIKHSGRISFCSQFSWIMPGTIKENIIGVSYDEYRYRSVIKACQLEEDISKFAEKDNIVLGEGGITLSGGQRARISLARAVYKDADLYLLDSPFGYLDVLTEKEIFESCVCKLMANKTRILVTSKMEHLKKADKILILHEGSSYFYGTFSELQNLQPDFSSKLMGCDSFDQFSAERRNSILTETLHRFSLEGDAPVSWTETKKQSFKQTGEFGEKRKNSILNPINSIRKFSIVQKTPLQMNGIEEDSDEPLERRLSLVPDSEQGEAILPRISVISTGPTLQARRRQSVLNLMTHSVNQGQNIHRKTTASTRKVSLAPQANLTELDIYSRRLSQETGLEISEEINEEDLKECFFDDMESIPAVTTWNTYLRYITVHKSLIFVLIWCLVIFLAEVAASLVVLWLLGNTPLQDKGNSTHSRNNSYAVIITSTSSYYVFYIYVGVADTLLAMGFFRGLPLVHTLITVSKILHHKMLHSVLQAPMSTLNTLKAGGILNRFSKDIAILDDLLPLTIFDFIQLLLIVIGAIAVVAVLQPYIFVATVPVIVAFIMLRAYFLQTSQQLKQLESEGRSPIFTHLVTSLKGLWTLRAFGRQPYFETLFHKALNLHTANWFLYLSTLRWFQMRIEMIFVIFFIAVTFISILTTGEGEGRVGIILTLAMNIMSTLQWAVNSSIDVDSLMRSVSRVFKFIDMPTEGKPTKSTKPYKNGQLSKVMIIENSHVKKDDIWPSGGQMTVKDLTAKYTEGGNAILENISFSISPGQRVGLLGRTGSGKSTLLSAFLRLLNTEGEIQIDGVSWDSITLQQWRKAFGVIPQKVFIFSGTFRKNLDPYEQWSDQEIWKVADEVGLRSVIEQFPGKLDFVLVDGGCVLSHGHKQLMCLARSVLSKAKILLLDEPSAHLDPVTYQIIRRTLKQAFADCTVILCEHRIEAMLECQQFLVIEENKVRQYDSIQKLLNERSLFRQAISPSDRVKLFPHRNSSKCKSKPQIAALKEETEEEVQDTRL
Method: Fisher rat thyroid (FRT) cells expressing human wild type-, ΔF508- and G551D-CFTR with a halide sensor YFP-H148Q/I152L were generously provided by Dr. Alan Verkman (University of California, San Francisco) and grown in F-12 Modified Coon´s medium supplemented with 10% FBS, 2 mM glutamine, 100 units/ml penicillin and 100 μg/ml streptomycin [30]. A549 cells were obtained from Korean Cell Line Bank (Seoul, Korea) and the cells were stably transfected with human ΔF508-CFTR and the halide sensor YFP-H148Q/I152L/F46L, and maintained in RPMI-1640 medium containing 10% fetal bovine serum (FBS), 100 units/ml penicillin and 100 μg/ml streptomycin. […]
FRT cells expressing wild type- or ΔF508-CFTR with the halide sensor YFP-H148Q/I152L were plated in 96-well black-walled microplates (Corning Inc., Corning, NY) at a density of 2 x10^4cells per well. […] Assays were done using FLUO star Omega microplate reader (BMG Labtech, Ortenberg, Germany) and MARS Data Analysis Software (BMG Labtech). […] After 10 min, 96-well plates were transferred to the microplate reader preheated to 37°C for fluorescence assay. Each well was assayed individually for CFTR-mediated I^- influx by recording fluorescence continuously (200 ms per point) for 2 s (baseline), then 100 μL of 140 mM I^- solution was added at 2 s and then YFP fluorescence was recorded for 14 s. […]

WT-CFTR [1] = biological target: T1, WT-CFTR (Homo sapiens, UniProt P13569); test: Apical membrane current (Ussing chamber) in FRT cells expressing WT-CFTR; assay type: cell-based
T1 construct: expressed in transfected cells; host or cells: Fisher rat thyroid (FRT) cells, co-expressing halide sensor YFP-H148Q/I152L; provided by Dr. Alan Verkman
Method: (§1) Snapwell inserts containing CFTR-expressing FRT and primary culture of human nasal epithelial cells were mounted in Ussing chambers (Physiologic Instruments, San Diego, CA). Forskolin, genistein, CP7q and CFTRinh-172 were added to the apical and basolateral bath solution. For FRT cells, the apical bath was filled with a half-Cl^- solution and the basolateral bath was filled with HCO3^—buffered solution, and the basolateral membrane was permeabilized with 250 μg/mL amphotericin B. For primary cultures of human nasal epithelial cells, symmetrical HCO3^—buffered solutions were used and ENaC was inhibited by pre-treatment with amiloride (100 μM). All cells were bathed for a 20 min stabilization period and aerated with 95% O2 / 5% CO2 at 37°C. Apical membrane current and short-circuit current were measured with an EVC4000 Multi-Channel V/I Clamp (World Precision Instruments, Sarasota, FL) and recorded using PowerLab 4/35 (AD Instruments, Castle Hill, Australia). Data were collected and analyzed with ADInstruments acquisition software Labchart Pro 7 software. The sampling rate was 4 Hz.

CFTR = biological target: T2, CFTR (Homo sapiens, UniProt P13569); test: Short-circuit current in primary cultures of normal human nasal epithelial cells; assay type: cell-based; conditions: 0.5 μM forskolin, amiloride pretreatment
T2 construct: endogenous in cells; host or cells: primary cultures of normal human nasal epithelial cells (provided by Dr. Jaeyoung Choi), passage 2, air-liquid interface
T2 sequence (P13569 whole entry): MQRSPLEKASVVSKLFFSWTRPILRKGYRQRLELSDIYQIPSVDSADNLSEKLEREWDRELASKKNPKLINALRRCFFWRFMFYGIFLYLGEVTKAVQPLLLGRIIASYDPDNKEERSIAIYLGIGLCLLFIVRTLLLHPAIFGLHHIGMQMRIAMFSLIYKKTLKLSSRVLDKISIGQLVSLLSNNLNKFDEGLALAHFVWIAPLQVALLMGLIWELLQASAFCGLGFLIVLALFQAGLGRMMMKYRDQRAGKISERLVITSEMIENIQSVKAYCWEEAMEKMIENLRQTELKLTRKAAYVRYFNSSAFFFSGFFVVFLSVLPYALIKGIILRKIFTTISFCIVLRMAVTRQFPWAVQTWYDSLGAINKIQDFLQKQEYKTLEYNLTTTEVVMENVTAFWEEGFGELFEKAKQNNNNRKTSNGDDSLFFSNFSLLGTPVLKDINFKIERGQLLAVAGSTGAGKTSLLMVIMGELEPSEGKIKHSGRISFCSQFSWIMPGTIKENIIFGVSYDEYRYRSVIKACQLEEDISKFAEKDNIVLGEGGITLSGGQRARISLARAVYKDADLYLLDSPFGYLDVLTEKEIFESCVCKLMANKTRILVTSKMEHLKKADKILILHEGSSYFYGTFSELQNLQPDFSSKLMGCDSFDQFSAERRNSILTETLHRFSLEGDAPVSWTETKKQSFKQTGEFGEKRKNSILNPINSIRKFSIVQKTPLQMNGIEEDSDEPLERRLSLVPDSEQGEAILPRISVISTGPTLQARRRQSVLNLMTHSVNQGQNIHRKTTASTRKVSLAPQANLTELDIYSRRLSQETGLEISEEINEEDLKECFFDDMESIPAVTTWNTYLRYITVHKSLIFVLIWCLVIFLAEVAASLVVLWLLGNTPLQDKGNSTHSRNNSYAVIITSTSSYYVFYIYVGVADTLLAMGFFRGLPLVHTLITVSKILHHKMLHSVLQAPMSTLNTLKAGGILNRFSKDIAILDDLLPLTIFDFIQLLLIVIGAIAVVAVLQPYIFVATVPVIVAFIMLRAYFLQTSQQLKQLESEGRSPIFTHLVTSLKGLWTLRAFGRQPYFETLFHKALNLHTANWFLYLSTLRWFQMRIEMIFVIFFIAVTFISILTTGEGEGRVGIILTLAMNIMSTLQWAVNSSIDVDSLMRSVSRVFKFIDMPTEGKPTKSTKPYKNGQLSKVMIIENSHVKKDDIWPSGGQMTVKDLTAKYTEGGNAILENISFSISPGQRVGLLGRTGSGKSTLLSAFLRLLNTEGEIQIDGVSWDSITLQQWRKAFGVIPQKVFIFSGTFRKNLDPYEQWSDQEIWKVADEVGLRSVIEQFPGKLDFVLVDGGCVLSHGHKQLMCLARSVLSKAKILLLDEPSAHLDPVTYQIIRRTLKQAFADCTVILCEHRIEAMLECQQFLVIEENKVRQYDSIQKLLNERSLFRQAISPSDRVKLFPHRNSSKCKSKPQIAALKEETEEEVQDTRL
Method: as §1

intracellular cAMP = test: Cyclic AMP assay in FRT cells; assay type: cell-based, rat; conditions: 10 μM CP7q
Method: FRT cells grown on 12 well culture plates were washed 3 times with PBS at 37°C and then incubated in PBS at 37°C containing 100 μM IBMX for […] in the absence or presence of forskolin or CP7q. After 10 min incubation, the cells were washed with cold PBS and cytosolic cAMP was measured using a cAMP immunoassay kit (Parameter TM cAMP immunoassay kit, R&D Systems) according to the manufacturer's protocol.

WT-CFTR [2] = biological target: T1, WT-CFTR; test: Whole-cell patch-clamp in FRT cells expressing WT-CFTR; assay type: cell-based
Method: Whole-cell patch-clamp recordings were performed on WT- or ΔF508-CFTR-expressing FRT cells. The bath solution contained (in mM): 140 NMDG-Cl, 1 CaCl2, 1 MgCl2, 10 glucose and 10 HEPES (pH 7.4). The pipette solution contained (in mM): 130 CsCl, 0.5 EGTA, 1 MgCl2, 1 Tris-ATP, and 10 HEPES (pH 7.2). Pipettes were pulled from borosilicate glass and had resistances of 3–5 MΩ after fire polishing. Seal resistances were between 3 and 10 GΩ. After establishing the whole-cell configuration, CFTR was activated by forskolin and/or CP7q. Whole-cell currents were elicited by applying hyperpolarizing and depolarizing voltage pulses from a holding potential of 0 mV to potentials between -80 mV and +80 mV in steps of 20 mV. Recordings were made at room temperature using an Axopatch-200B (Axon Instruments). Currents were digitized and analyzed using a Digidata 1440A converter (Axon Instruments), and pCLAMP 10.2 software (Molecular Devices, Sunnyvale, CA). Currents were low-pass filtered at 1 kHz and sampled at 5 kHz

COc1ccc(C2CC(c3ccc(O)cc3O)=NN2c2ccc(S(N)(=O)=O)cc2)c(OC)c1 (stereo not shown) [Compound 7q, 4-[3-(2,4-dihydroxyphenyl)-5-(2,4-dimethoxyphenyl)-4,5-dihydro-1H-pyrazol-1-yl] benzenesulfonamide]
Effect on functional rescue of ΔF508-CFTR by VX-809 (iodide influx) (ΔF508-CFTR): significantly increased | EC50 (WT-CFTR [1]; FRT-WT-CFTR cells, 0.1 μM forskolin): 880 nM and ~880 nM | Maximum efficacy of CFTR potentiation compared with genistein (WT-CFTR [1]; WT-CFTR stimulated by 0.1 μM forskolin): significantly higher than that of genistein | Potentiation of CFTR Cl- current (short-circuit current) (CFTR): remarkably potentiated | Effect on intracellular cAMP level (intracellular cAMP): did not alter; also recorded: did not affect | Potentiation of whole-cell WT-CFTR Cl- current (WT-CFTR [2]; 0.1 μM forskolin, 10 μM CP7q): strongly potentiated | Activation of WT-CFTR without forskolin stimulation (WT-CFTR [2]; whole cell patch-clamp, no forskolin): did not activate
